Ends that are not written are not given here.
Molecular target: T1, transferrin receptor (TfR) (Homo sapiens, UniProt P02786)
T1 construct: HeLa cells were grown to 80-90% confluence at 37° C. at 5% CO2; endogenous in cells; host or cells: HeLa cells
Assay: Measurement of cell-associated transferrin (labeled transferrin binding to HeLa cells, Scatchard analysis)
Details: for effect on TfR affinity for transferrin (in words): HeLa cells, peptide 50 μM or soluble HFE/β2m 100 nM alone

T1 sequence (P02786 whole entry): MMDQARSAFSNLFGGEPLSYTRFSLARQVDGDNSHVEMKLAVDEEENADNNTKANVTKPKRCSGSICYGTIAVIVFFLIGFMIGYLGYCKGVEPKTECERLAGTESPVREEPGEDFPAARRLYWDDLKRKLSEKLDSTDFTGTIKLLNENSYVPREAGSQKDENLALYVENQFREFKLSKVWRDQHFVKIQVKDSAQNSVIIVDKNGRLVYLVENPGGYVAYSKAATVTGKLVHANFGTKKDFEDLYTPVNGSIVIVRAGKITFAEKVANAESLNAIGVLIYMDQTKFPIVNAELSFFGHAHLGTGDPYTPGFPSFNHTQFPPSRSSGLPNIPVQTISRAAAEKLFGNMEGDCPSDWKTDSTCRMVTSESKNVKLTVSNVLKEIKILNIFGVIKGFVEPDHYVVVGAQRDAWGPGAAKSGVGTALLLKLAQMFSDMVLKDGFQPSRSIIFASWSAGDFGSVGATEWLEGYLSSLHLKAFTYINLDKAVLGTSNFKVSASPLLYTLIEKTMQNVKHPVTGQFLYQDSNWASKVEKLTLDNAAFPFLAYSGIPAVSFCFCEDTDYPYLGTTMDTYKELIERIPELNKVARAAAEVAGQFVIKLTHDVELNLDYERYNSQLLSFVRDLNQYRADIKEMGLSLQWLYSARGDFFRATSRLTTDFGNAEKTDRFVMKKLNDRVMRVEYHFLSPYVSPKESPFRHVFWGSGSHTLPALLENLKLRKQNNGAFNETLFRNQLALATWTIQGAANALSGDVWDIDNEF

increase of KD of TfR for transferrin versus HeLa cells alone (FIG. 1 experiment, peptide 50 μM or soluble HFE/β2m 100 nM)	effect on TfR affinity for transferrin (in words) (FIG. 3 experiment)	effect on TfR affinity for transferrin (in words) (FIG. 2 experiment)	Sequence
approximately 2 fold	significant increase in KD	–	GWDHMFTVDFWTIMENH [G-(17)-H (Trp)]
–	little effect	little effect	GWDHMFTVDFATIMENH [G-(17)-H (Ala)]

Reference: patent US7329650B2, “Peptides and peptide analogues designed from HFE protein and their uses in the treatment of iron overload diseases” (Bio-Rad Laboratories, Inc., priority 1998, dated 2008)
